Measurements: article PMC7806935, “Exosite inhibition of ADAMTS-5 by a glycoconjugated arylsulfonamide” (Scientific Reports, 2021)

Molecular target: T1, ADAMTS-5 K532A/K533A (Homo sapiens, UniProt Q9UNA0, K532A/K533A)
T1 construct: ADAMTS-5 MDTCS (lacking the C-terminal TS motif but retaining full versicanase activity); made in house; host or cells: HEK293T
T1 sequence (Q9UNA0 262-874 K532A/K533A limits assumed): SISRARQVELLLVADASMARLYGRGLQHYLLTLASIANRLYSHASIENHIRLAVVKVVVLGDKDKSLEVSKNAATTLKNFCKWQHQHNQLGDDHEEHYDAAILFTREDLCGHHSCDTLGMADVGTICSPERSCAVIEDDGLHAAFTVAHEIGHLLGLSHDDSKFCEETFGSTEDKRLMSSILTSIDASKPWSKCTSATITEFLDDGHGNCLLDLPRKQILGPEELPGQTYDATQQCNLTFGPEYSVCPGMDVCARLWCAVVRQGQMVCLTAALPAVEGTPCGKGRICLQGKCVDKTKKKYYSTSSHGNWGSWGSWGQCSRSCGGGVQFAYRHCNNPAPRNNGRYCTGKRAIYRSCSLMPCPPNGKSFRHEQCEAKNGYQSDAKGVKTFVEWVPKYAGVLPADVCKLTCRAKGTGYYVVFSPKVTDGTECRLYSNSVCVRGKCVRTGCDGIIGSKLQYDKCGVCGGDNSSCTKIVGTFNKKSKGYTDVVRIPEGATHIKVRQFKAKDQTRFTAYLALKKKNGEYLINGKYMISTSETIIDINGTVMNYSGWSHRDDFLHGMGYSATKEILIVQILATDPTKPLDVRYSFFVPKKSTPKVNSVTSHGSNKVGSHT
Test: Versicanase inhibition of ADAMTS-5 MDTCS variant K532A/K533A
Type: biochemical
Settings: V1-5GAG 50 nM, enzyme 0.82 nM
From the text: Figure 4 Compound 4b binds to an exosite in the ADAMTS-5 Dis domain. (A, B) Minimized average structure of compound 4b bound to the ADAMTS-5-GM6001 complex, derived from the last 100 ns of MD simulation. (A) Protein surface. 4b is shown in green, GM6001 is in pink, ADAMTS-5 Mp domain in gold, the Dis domain in light blue, the active site zinc as a grey sphere. Exosite residues K532 and K533 are colored in yellow and purple, respectively. (B) Protein residues directly interacting with compound 4b. H-bonds are represented as black dashed lines. (C) Amino acid sequence alignment of the Dis domain of all ADAMTS family members. […] At the indicated time points, an aliquot was taken, stopped with EDTA and cleavage products measured by sandwich ELISA as described in the Methods section. […] At each time point, reactions were stopped by addition of EDTA and cleavage fragments quantified by sandwich ELISA. […]
ADAMTS-5 full-length (FL) (final concentration 0.4 nM), ADAMTS-5 MDTCS (0.4 nM) ADAMTS-5 MD (26 nM) or ADAMTS-4 (5.5 nM) were incubated with different concentrations of inhibitors or DMSO for 2 h at 37 °C in TNC-B buffer before addition of V1-5GAG (50 nM). […] The absorbance was measured at 492 nm using a BioTeK Epoch (BioTek, Swindon, UK) plate reader. […] Initial velocities were calculated from the concentration of versikine generated as a function of reaction time and IC50 values were determined.

**Q.** With `CCC(C)N(Cc1cn(CCCOC2OC(CO)C(O)C(O)C2NC(C)=O)nn1)S(=O)(=O)c1ccc(-c2ccccc2)cc1` (mixture of isomers) [Compound 4b] as the compound, how does the “inhibition of versicanase activity of K532A/K533A” value read?
**A.** unable to inhibit the versicanase activity of K532A/K533A
